Measurements from US10377772B2, “Macrocyclic LRRK2 kinase inhibitors” (Oncodesign S.A., priority 2014, dated 2019).
pIC50: −log10 of the molar value.

Molecular target: LRRK2 recombinant protein (Homo sapiens (Human), UniProt Q5S007)
Experiment: radiometric protein kinase assay (33PanQinase Activity Assay) for LRRK2
Type: biochemical
Conditions: ATP 0.3 μM, LRRK2 7.3 nM, substrate GSK3(14-27), 30° C. for 60 minutes
Protocol: The inhibition of LRRK2 kinase was assessed using LRRK2 recombinant protein in an in vitro peptide-based kinase assay.
A radiometric protein kinase assay (^33PanQinase® Activity Assay) is used for measuring the kinase activity. All assays are performed in 96-well FlashPlates™ from Perkin Elmer in a 50 μl reaction volume. The reaction cocktail is pipetted in 4 steps in the following order: • 10 μl of non-radioactive ATP solution (in H2O) • 25 μl of assay buffer/[γ-^33P]-ATP mixture • 5 μl of test sample in 10% DMSO • 10 μl of enzyme/substrate mixture
The assay for LRRK2 contains 70 mM HEPES-NaOH pH 7.5, 3 mM MgCl2, 3 mM MnCl2, 3 μM Na-orthovanadate, 1.2 mM DTT, 50 μg/ml PEG20000, ATP (0.3 μM), [γ-^33P]-ATP (approx. […] per well), protein kinase LRRK2 (7.3 nM) and substrate (GSK3(14-27), 1.0 μg/50 μl).
The kinase is obtained from Invitrogen Corporation.
The reaction cocktails were incubated at 30° C. for 60 minutes. The reaction was stopped with 50 μl of 2% (v/v) H3PO4, plates were aspirated and washed two times with 200 μl 0.9% (w/v) NaCl. Incorporation of ^33Pi (counting of “cpm”) was determined with a microplate scintillation counter.
The compounds are dissolved to 10 mM in DMSO. Where needed, solutions are sonicated in a bath sonicator.
Table 2 provides the pIC50 values of the compounds according to the invention, obtained using the above mentioned kinase assay.

Sequence of LRRK2 recombinant protein (Q5S007 whole entry): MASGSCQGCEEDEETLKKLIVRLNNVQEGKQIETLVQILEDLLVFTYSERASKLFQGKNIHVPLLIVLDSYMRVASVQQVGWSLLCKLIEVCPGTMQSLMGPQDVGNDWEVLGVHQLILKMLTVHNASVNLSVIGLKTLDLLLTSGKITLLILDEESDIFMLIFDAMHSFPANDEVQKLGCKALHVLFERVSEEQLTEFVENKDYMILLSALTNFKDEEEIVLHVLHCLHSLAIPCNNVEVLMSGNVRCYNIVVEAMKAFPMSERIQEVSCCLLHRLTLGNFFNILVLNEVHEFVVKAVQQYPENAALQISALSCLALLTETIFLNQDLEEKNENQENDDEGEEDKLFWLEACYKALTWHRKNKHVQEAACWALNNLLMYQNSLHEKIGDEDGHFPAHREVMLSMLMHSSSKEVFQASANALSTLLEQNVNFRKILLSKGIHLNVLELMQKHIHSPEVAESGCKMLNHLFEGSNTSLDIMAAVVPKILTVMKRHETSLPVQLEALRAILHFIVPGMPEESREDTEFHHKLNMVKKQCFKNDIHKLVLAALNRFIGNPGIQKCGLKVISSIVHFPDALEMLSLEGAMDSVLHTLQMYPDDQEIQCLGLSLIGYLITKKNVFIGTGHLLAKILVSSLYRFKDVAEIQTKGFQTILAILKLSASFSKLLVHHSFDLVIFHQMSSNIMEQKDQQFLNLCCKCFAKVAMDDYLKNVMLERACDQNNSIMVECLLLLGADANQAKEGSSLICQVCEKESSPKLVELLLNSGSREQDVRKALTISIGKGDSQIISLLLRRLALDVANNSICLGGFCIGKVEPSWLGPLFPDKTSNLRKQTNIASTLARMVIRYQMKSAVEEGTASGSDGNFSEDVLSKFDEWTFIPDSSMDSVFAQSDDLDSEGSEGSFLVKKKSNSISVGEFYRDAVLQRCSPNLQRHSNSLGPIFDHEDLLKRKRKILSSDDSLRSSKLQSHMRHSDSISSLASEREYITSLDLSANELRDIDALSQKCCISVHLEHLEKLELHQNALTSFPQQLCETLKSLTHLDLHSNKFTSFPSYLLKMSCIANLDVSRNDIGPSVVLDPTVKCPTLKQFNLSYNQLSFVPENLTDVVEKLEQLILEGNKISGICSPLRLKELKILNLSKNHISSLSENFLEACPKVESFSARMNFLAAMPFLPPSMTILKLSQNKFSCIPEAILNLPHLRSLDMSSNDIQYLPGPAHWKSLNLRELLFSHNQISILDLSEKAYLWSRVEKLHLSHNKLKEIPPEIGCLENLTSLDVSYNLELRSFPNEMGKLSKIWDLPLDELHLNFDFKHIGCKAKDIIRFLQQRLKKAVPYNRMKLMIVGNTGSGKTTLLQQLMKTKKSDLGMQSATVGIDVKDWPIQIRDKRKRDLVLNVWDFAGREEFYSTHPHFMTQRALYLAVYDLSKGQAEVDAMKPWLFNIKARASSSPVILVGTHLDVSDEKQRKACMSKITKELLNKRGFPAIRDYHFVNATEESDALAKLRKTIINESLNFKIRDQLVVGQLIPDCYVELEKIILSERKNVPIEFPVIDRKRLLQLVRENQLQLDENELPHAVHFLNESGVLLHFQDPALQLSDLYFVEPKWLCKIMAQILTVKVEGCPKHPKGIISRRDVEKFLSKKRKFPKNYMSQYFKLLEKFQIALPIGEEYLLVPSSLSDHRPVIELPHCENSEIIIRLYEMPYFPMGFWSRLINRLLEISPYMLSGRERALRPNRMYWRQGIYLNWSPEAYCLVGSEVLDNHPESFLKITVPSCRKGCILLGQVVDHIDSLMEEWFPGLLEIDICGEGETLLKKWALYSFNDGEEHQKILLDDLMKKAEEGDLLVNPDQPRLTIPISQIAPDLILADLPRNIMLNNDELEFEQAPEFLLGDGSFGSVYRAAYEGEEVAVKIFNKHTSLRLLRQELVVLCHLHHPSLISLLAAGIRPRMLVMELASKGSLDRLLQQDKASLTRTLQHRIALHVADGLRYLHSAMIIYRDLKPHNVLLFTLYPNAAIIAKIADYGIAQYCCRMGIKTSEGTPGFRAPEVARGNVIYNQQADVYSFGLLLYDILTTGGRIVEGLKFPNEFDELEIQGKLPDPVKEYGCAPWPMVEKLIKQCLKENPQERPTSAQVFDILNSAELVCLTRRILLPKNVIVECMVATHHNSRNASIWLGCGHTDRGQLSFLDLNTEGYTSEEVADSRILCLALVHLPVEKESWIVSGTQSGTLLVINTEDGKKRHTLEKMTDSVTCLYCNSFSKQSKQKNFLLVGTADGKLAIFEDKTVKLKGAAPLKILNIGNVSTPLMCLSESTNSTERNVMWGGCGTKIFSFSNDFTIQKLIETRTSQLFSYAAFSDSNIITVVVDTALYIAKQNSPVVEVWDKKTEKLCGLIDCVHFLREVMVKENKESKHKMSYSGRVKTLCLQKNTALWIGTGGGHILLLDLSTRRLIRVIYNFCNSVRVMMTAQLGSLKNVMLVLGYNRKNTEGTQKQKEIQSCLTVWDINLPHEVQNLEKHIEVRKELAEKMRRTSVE

| SMILES | pIC50 |
| --- | --- |
| CN1CCN2C[C@H]3CCCN3C[C@H]2COc2ccc(F)c(c2)-c2cnn3ccc1nc23 [Example N29] | > 7.00 |
| C[C@@H]1CN2CCNc3ccn4ncc(c4n3)-c3cc(ccc3F)OC[C@@H]2CN1CC1CC1 [Example N49] | > 7.00 |
| Fc1ccc2cc1-c1cnn3ccc(nc13)NCCN1C[C@H]3CCCN3C[C@H]1CO2 [Example N27] | > 7.00 |
| Fc1ccc2cc1-c1cnn3ccc(nc13)NC1CCN(CCN2)CC1 [Example N3] | > 7.00 |
| Fc1ccc2cc1-c1cnn3ccc(nc13)NCCN1CCC(CC1)O2 [Example N33] | > 7.00 |
| CC(C)[C@H]1CN2CCN(C)c3ccn4ncc(c4n3)-c3cc(ccc3F)OC[C@@H]2CN1 [Example N56] | 6.00 to 7.00 |
| Fc1ccc2cc1-c1cnn3ccc(nc13)NCCC1CCCN1CCN2 (stereo not drawn) [Example N5] | > 7.00 |
| Fc1ccc2cc1-c1cnn3ccc(nc13)NCCN1CCC=C[C@H]1CO2 [Example N41] | > 7.00 |
| CC1(C)CN2CCNc3ccn4ncc(c4n3)-c3cc(ccc3F)OC[C@@H]2CN1 [Example N55] | > 7.00 |
| Fc1ccc2cc1-c1cnn3ccc(nc13)NCCN1C[C@H]3CCCN3C[C@@H]1CO2 [Example N30] | > 7.00 |
| Fc1ccc2cc1-c1cnn3ccc(nc13)NC1CCN(CCCN2)C1 (stereo not drawn) [Example N6] | > 7.00 |
| Fc1ccc2cc1-c1cnn3ccc(nc13)OCCN1CCC[C@H]1CN2 [Example N21] | > 7.00 |
| C=CCN1C[C@H]2COc3ccc(F)c(c3)-c3cnn4ccc(nc34)NCCN2CC1(C)C [Example N63] | > 7.00 |
| CCN1C[C@H]2COc3ccc(F)c(c3)-c3cnn4ccc(nc34)NCCN2C[C@H]1C [Example N50] | > 7.00 |
| C[C@H]1C[C@@H]2CCN1CCNc1ccn3ncc(c3n1)-c1cc(ccc1F)O2 [Example N40] | > 7.00 |
| c1cc2cc(c1)-c1cnn3ccc(nc13)NCCN1CCC[C@H]1CO2 [Example N1] | > 7.00 |
| CN1CCN2CCOC[C@H]2COc2ccc(F)c(c2)-c2cnn3ccc1nc23 [Example N25] | > 7.00 |
| C[C@H]1CN2CCNc3ccn4ncc(c4n3)-c3cc(ccc3F)O[C@H](CN1)C2 [Example N54] | > 7.00 |
| CC(=O)N1CCN2CCNc3ccn4ncc(c4n3)-c3cc(ccc3F)OC[C@@H]2C1 [Example N32] | > 7.00 |
| Fc1ccc2cc1-c1cnn3ccc(nc13)NCCN1CCC[C@H]1CO2 [Example N8] | > 7.00 |
| Fc1cc(Cl)c2cc1-c1cnn3ccc(nc13)NCCN1CCC[C@H]1CO2 [Example N26] | > 7.00 |

| SMILES | pIC50 |
| --- | --- |
| Fc1ccc2cc1-c1cnc3ccc(nn13)NCCN1CCCC[C@H](C1)O2 [Example N59] | > 7.00 |
| CN1CCN2C[C@@H](CN3CCC[C@H]3C2)Oc2ccc(F)c(c2)-c2cnn3ccc1nc23 [Example N44] | > 7.00 |
| CN1CCN2C[C@H](CN3CCC[C@H]3C2)Oc2ccc(F)c(c2)-c2cnn3ccc1nc23 [Example N31] | > 7.00 |
| CC1(C)CN2CCNc3ccn4ncc(c4n3)-c3cc(ccc3F)OC[C@@H]2CN1C1CC1 [Example N62] | > 7.00 |
| Fc1ccc2cc1-c1cnn3ccc(nc13)NCCN1CCOC[C@H]1CO2 [Example N22] | > 7.00 |
| C[C@@H]1CN2CCNc3ccn4ncc(c4n3)-c3cc(ccc3F)OC[C@@H]2CN1 [Example N45] | > 7.00 |
| CN1CCN2CCC[C@H]2COc2ccc(F)c(c2)-c2cnn3ccc1nc23 [Example N11] | > 7.00 |
| Fc1ccc2cc1-c1cnn3ccc(nc13)NCCN1C[C@@H]3CCCN3C[C@H]1CO2 [Example N38] | > 7.00 |
| Fc1ccc2cc1-c1cnn3ccc(nc13)NCCN1CCC[C@H]1CN2 [Example N2] | > 7.00 |
| Fc1ccc2cc1-c1cnn3ccc(nc13)N[C@H]1CCCN(CCO2)C1 [Example N57] | > 7.00 |
| Fc1ccc2cc1-c1cnn3ccc(nc13)OC1CCN(CCN2)CC1 [Example N9] | 6.00 to 7.00 |
| CN1CCN2C[C@@H]3CCCN3C[C@H]2COc2ccc(F)c(c2)-c2cnn3ccc1nc23 [Example N42] | > 7.00 |
| CN1CCN2CCNc3ccn4ncc(c4n3)-c3cc(ccc3F)OC[C@@H]2C1 [Example N23] | > 7.00 |
| Fc1ccc2cc1-c1cnn3ccc(nc13)NCCN1CCNC[C@@H]1CO2 [Example N35] | > 7.00 |
| CN1CCN2CCC[C@H]2CNc2ccc(F)c(c2)-c2cnn3ccc1nc23 [Example N16] | > 7.00 |
| CN1c2ccn3ncc(c3n2)-c2cc(ccc2F)OCCN2CC[C@@H]1C2 [Example N61] | > 7.00 |
| CN1c2ccn3ncc(c3n2)-c2cc(ccc2F)OCCN2CCC1CC2 [Example N15] | > 7.00 |
| C[C@H]1CN2CCNc3ccn4ncc(c4n3)-c3cc(ccc3F)OC[C@@H]2CN1 [Example N53] | > 7.00 |
| C[C@@H]1CN2CCNc3ccn4ncc(c4n3)-c3cc(ccc3F)OC[C@@H]2CN1C [Example N46] | > 7.00 |
| Fc1ccc2cc1-c1cnn3ccc(nc13)NCCCN1CCC[C@H]1CO2 [Example N14] | > 7.00 |
| Fc1ccc2cc1-c1cnn3ccc(nc13)OCCCN1CCC[C@H]1CN2 [Example N13] | 6.00 to 7.00 |

| SMILES | pIC50 |
| --- | --- |
| Fc1ccc2cc1-c1cnn3ccc(nc13)NCCN1CCCC[C@H](C1)O2 [Example N18] | > 7.00 |
| Fc1ccc2cc1-c1cnn3ccc(nc13)NCCN1CCCC[C@H]1CO2 [Example N17] | > 7.00 |
| Fc1ccc2cc1-c1cnn3ccc(nc13)NCCN1C[C@@H](CN3CCC[C@H]3C1)O2 [Example N43] | > 7.00 |
| Fc1ccc2cc1-c1cnn3ccc(nc13)NCCN1CCNC[C@H]1CO2 [Example N20] | > 7.00 |
| Fc1ccc2cc1-c1cnn3ccc(nc13)OCCN1CCC(CC1)N2 [Example N7] | > 7.00 |
| CN1CCN2CCC(CC2)Oc2ccc(F)c(c2)-c2cnn3ccc1nc23 [Example N34] | > 7.00 |
| CCCN1C[C@H]2COc3ccc(F)c(c3)-c3cnn4ccc(nc34)NCCN2C[C@H]1C [Example N48] | > 7.00 |
| CN1CCN2CCNc3ccn4ncc(c4n3)-c3cc(ccc3F)OC[C@H]2C1 [Example N36] | > 7.00 |
| Fc1ccc2cc1-c1cnn3ccc(nc13)NCCN1C[C@H](F)C[C@H]1CO2 [Example N12] | > 7.00 |
| CC1(C)CN2CCNc3ccn4ncc(c4n3)-c3cc(ccc3F)O[C@H](CN1)C2 [Example N58] | > 7.00 |
| CN1CCN2CCN(C)c3ccn4ncc(c4n3)-c3cc(ccc3F)OC[C@@H]2C1 [Example N24] | > 7.00 |
| Fc1ccc2cc1-c1cnn3ccc(nc13)CCCN1CCC[C@H]1CO2 [Example N37] | > 7.00 |
| CC(C)[C@H]1CN2CCNc3ccn4ncc(c4n3)-c3cc(ccc3F)O[C@H](CN1)C2 [Example N51] | > 7.00 |
| Cc1cc(F)c2cc1NC[C@@H]1CCCN1CCNc1ccn3ncc-2c3n1 [Example N10] | > 7.00 |
| C[C@@H]1CN2CCNc3ccn4ncc(c4n3)-c3cc(ccc3F)OC[C@@H]2CN1C1CC1 [Example N47] | > 7.00 |
| CN1CCN2CCCC[C@H]2COc2ccc(F)c(c2)-c2cnn3ccc1nc23 [Example N19] | > 7.00 |
| Fc1ccc2cc1-c1cnn3ccc(nc13)NCCN1CCC(CC1)N2 [Example N4] | > 7.00 |
| Fc1ccc2cc1-c1cnn3ccc(nc13)NCCN1CCNC[C@H](C1)O2 [Example N28] | > 7.00 |
| Fc1ccc2cc1-c1cnn3ccc(nc13)NCCN1C[C@@H](F)C[C@H]1CO2 [Example N39] | 6.00 to 7.00 |
| Fc1ccc2cc1-c1cnc3ccc(nn13)NCCN1CCC[C@H]1CO2 [Example N52] | > 7.00 |
| Fc1ccc2cc1-c1cnn3ccc(nc13)N[C@@H]1CCN(CCO2)C1 [Example N60] | > 7.00 |
